Test results reported in US20030225049A1, “Method of treatment for increasing the number of NMDA receptors in a mammalian brain” (UNIVERSITE PARIS VI, priority 1998, published 2003).

Columns and labels:
Assay type in all cases: in vivo
NMDA receptors = experiment: Effect of DHEAS treatment on [3H]-MK801-labeled NMDA receptor sites in rat brain (quantitative autoradiography); details: male Wistar rats, 30 mg/kg i.p. twice daily for 5 days
Excerpt: 1.1 Labeling the NMDA Receptors with the Ligand [^3H]-MK801
The NMDA receptors in the rat brain were labeled by means of the quantitative autoradiography technique, thereby making it possible to visualize and quantify the number of receptors in different regions of the brain.
The radioactive ligand which makes it possible to specifically recognize the sites of the NMDA receptors is tritium-labeled dizocilpine (MK801), i.e. [^3H]-MK801 (Kemp et al. TINS (1987) 294-298).
Male rats (Wistar) weighing between 200 and 220 g were decapitated. Their brains were rapidly removed and placed in liquid isopentane at a temperature of −40° C. The brains were then stored at −80° C. until used.
Brain sections having a thickness of […] were obtained using a Frigocut 2800® cryostat, which is marketed by Reichert Jung.
The brain sections were preincubated in a 50 mM Tris-acetate, pH 7.4, buffer at 4° C. for 30 minutes. They were then dried rapidly at room temperature.
The sections were then incubated with the radioligand [^3H]-MK801, sold by New England Nuclear (Boston, Mass., USA) and having a specific activity of 24 Ci/mmol, at a concentration of 5 nM in the abovementioned buffer at 4° C. for a period of 4 hours.
Control sections were incubated with MK801, which was present at a concentration of 10^−5 M and which was not labeled with tritium, in order to determine non-specific binding.
All the sections were then rinsed for 5 seconds and then for 90 minutes in the same cold buffer.
The sections were dried at room temperature and then exposed on tritium-hyperfilm films (Amersham) at 4° C. in the dark for 4 weeks in autoradiography cassettes.
The films were developed for 2 minutes in a Kodak D19 developer and then fixed in Kodak Rapid fixer and finally rinsed for an hour in running water.
The autoradiographic labeling was quantified by densitometry using the RAG-200 software sold by BIOCOM (Les Ulis, France), and the binding was measured by relative optical density.
30 mg of DHEAS were administered/kg, intraperitoneally and twice daily, to non-castrated male Wistar rats for 5 days. The rats were sacrificed on the 5th day, 30 minutes after the last injection of DHEAS.
The apparent [^3H]-MK801-binding sites are measured by optical density OD for the total specific binding of [^3H]-MK801 in the cortex and different regions of the hippocampus: CA1; CA3; lateral blade of the dentate gyrus, DG1b, and the median blade of the dentate gyrus, DGmb.

[1] = system: NR2 subunits of NMDA receptors (NMDA R2 A/B); experiment: Immunohistochemistry of NR2 subunits of NMDA receptors in rat brain after DHEAS treatment; details: after 5, 20 and 30 days of treatment, 30 mg/kg i.p. twice daily
Description: (§1) Male Wistar rats weighing 200-220 g (IFFA CREDO, Paris) were housed at 21° C. with a standard 12 h light/12 h dark cycle and with food and water being freely available. The animals received intraperitoneal (i.p.) injections of either the vehicle dimethyl sulfoxide (DMSO; 0.2 ml/250 g body weight(b.w.) or dehydroepiandrosterone sulfate (DHEAS; 30 mg/kg b.w. dissolved in DMSO (0.2 ml/250 g b.w)) twice daily, at 8 a.m. and 6 p.m., for a period of either 5, 20 or 30 days. The last injection was given at 8 a.m. of the 5th, 20th or 30th day. All the animals were killed 2 hours after the last injection. Six groups of animals (ten animals per group) were used. Three control groups received DMSO alone for a period of 5, 20 or 30 days respectively, and, in a similar manner, three groups received DHEAS treatment for a period of 5, 20 or 30 days respectively.
(§2) The rats were killed by decapitation and the brains were rapidly removed from the skull, quickly frozen in liquid isopentane at −40° C., and kept at −80° C. until sectioned. The frozen brains were cut into 20 um thick sections in a cryostat (Frigocut 2800, Reichert Jung). […]
(§3) The increase can be quantified by the SCION program developed at the National Institutes of Health (USA). […]

[2] = system: NR1 subunit of the NMDA receptor; experiment: Immunohistochemistry of NR1 subunits of NMDA receptors in rat brain after DHEAS treatment; details: after 5, 20 and 30 days of treatment, 30 mg/kg i.p. twice daily
Description: as §1, §2, §3

dehydroepiandrosterone sulfate [DHEAS]
number of [3H]-MK801 sites, OD (NMDA receptors; CA1): 54.01 ± 4.05 | number of [3H]-MK801 sites, OD (NMDA receptors; CA3): 33.37 ± 4.94 | number of [3H]-MK801 sites, OD (NMDA receptors; Cortex): 24.88 ± 2.73 | number of [3H]-MK801 sites, OD (NMDA receptors; DG1b (dentate gyrus, lateral blade)): 42.15 ± 4.31 | number of [3H]-MK801 sites, OD (NMDA receptors; DGmb (dentate gyrus, medial blade)): 43.13 ± 3.53 | NR2 subunits (in words) [1]: slight increase | number of NR1 subunits (in words) [2]: clear increase
